The record followed here is US20240316022A1 (TYRA BIOSCIENCES, INC., priority 2021, published 2024).

Assay in all cases: Kinase binding assay (kinase-tagged T7 phage, qPCR), Kd
On the technique in general: In qPCR the cycle at which signal appears reflects the starting amount.

The target in one assay is T1, FGFR1 (Homo sapiens, UniProt P11362).
T1 construct: made in house; host or cells: E. coli derived from BL21, infected with T7 phage
As to conditions: read-out: FGFR1 (Kd nM). The procedure:
(§1) Kinase-tagged T7 phage strains were prepared in an E. coli host derived from the BL21 strain. E. coli were grown to log-phase and infected with T7 phage and incubated with shaking at 32° C. until lysis. The lysates were centrifuged and filtered to remove cell debris. […] The liganded beads were blocked with excess biotin and washed with blocking buffer SeaBlock (Pierce), 1% BSA, 0.05% Tween 20, 1 mM DTT to remove unbound ligand and to reduce non-specific binding.
(§2) Kds were determined using an 11-point 3-fold compound dilution series with three DMSO control points. […] The compounds were then diluted directly into the assays such that the final concentration of DMSO was 0.9%. All reactions performed in polypropylene 384-well plate. Each was a final volume of 0.02 ml. […] The kinase concentration in the eluates was measured by qPCR.
(§3) Binding constants were calculated with a standard dose-response curve using the Hill equation: […]
(§4) The Hill Slope was set to −1. Curves were fitted using a non-linear least square fit with the Levenberg-Marquardt algorithm.

In a further assay the target is T2, FGFR2 (Homo sapiens, UniProt P21802).
T2 construct: made in house; host or cells: E. coli derived from BL21, infected with T7 phage
T2 sequence (P21802 22-821): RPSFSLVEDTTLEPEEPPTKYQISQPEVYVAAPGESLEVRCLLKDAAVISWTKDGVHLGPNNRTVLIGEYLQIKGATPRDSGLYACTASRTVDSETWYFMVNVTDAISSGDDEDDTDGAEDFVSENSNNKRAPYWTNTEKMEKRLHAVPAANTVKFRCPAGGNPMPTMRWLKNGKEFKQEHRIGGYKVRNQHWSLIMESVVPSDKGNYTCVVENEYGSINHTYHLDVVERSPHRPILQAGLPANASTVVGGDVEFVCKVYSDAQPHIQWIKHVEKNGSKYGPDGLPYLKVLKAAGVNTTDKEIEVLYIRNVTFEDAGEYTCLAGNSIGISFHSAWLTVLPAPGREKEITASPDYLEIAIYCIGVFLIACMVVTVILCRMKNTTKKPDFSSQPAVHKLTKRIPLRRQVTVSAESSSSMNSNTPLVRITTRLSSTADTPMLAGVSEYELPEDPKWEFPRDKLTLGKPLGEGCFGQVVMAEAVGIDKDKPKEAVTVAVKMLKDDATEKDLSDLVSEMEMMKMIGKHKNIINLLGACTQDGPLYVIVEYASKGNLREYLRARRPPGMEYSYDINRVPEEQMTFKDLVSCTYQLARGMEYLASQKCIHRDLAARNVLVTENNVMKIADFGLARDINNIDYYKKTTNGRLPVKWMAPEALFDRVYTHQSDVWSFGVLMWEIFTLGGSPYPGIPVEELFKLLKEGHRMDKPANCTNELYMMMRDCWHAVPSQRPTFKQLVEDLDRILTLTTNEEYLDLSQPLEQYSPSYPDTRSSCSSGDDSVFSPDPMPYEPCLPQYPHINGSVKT
The following applies: read-out: FGFR2 (Kd nM). The procedure:
as §1, §2, §3, §4

Another assay addresses T3, FGFR4 (Homo sapiens, UniProt P22455).
T3 construct: made in house; host or cells: E. coli derived from BL21, infected with T7 phage
The following applies: read-out: FGFR4 (Kd nM). How it is done: (§5) Kinase-tagged T7 phage strains were prepared in an E. coli host derived from the BL21 strain. E. coli were grown to log-phase and infected with T7 phage and incubated with shaking at 32° C. until lysis. The lysates were centrifuged and filtered to remove cell debris. Streptavidin-coated magnetic beads were treated with biotinylated small molecule ligands for 30 minutes at room temperature to generate affinity resins for kinase assays. The liganded beads were blocked with excess biotin and washed with blocking buffer SeaBlock (Pierce), 1% BSA, 0.05% Tween 20, 1 mM DTT to remove unbound ligand and to reduce non-specific binding. Binding reactions were assembled by combining kinases, liganded affinity beads, and test compounds in 1× binding buffer (20% SeaBlock, 0.17×PBS, 0.05% Tween 20, 6 mM DTT).
(§6) Test compounds were prepared as 111X stocks in 100% DMSO. Kds were determined using an 11-point 3-fold compound dilution series with three DMSO control points. All compounds for Kd measurements are distributed by acoustic transfer (non-contact dispensing) in 100% DMSO. The compounds were then diluted directly into the assays such that the final concentration of DMSO was 0.9%. All reactions performed in polypropylene 384-well plate. Each was a final volume of 0.02 ml. The assay plates were incubated at room temperature with shaking for 1 hour and the affinity beads were washed with wash buffer (1×PBS, 0.05% Tween 20). The beads were then re-suspended in elution buffer (1×PBS, 0.05% Tween 20, 0.5 μM non-biotinylated affinity ligand) and incubated at room temperature with shaking for 30 minutes. The kinase concentration in the eluates was measured by qPCR.
as §3, §4

Another assay addresses T4, FGFR3 (Homo sapiens, UniProt P22607).
T4 construct: made in house; host or cells: E. coli derived from BL21, infected with T7 phage
As to conditions: read-out: FGFR3 (Kd nM). The procedure:
as §5, §6, §3, §4

One may read the Kd as the constant that tells how readily two partners part at equilibrium.

T3 sequence (P22455 22-802): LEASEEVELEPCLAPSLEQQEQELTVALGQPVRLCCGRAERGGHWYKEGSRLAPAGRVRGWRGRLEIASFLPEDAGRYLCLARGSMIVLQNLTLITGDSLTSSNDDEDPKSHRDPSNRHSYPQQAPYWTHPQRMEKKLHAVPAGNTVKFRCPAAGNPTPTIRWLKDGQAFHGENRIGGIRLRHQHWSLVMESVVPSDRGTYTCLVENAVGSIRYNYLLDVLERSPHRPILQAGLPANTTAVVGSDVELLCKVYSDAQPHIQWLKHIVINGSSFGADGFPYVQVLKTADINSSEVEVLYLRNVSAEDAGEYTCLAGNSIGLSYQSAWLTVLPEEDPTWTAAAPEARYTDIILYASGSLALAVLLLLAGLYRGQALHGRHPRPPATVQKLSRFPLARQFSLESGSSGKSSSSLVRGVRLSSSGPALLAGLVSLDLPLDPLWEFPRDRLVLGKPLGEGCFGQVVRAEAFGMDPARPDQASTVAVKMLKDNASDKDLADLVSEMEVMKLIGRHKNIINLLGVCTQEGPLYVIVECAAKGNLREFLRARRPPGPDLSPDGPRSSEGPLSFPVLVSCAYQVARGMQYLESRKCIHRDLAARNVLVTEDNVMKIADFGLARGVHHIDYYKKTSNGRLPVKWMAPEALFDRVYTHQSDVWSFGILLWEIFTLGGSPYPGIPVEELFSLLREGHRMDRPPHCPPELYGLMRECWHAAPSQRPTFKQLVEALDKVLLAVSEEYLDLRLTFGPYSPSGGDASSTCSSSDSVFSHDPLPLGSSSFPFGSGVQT
T1 sequence (P11362 22-822): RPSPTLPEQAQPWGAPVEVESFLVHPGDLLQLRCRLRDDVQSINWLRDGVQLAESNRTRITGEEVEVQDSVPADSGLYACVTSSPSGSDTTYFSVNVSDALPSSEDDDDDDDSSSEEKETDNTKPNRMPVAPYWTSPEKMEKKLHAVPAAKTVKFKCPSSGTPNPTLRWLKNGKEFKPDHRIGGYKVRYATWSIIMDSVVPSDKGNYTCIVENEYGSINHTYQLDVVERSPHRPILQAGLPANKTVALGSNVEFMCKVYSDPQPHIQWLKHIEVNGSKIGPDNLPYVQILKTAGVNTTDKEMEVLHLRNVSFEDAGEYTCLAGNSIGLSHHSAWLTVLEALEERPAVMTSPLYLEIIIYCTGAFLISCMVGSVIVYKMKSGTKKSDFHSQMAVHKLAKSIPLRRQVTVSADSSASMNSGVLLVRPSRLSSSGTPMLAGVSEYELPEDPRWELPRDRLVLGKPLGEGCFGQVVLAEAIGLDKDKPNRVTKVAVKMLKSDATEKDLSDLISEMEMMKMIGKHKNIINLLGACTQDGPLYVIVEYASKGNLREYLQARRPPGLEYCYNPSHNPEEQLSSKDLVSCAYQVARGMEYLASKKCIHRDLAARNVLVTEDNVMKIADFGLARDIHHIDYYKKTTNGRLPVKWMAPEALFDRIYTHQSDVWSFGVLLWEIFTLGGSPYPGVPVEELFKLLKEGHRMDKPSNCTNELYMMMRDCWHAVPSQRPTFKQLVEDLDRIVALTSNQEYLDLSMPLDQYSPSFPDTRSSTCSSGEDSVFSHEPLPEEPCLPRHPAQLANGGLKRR
T4 sequence (P22607 23-806): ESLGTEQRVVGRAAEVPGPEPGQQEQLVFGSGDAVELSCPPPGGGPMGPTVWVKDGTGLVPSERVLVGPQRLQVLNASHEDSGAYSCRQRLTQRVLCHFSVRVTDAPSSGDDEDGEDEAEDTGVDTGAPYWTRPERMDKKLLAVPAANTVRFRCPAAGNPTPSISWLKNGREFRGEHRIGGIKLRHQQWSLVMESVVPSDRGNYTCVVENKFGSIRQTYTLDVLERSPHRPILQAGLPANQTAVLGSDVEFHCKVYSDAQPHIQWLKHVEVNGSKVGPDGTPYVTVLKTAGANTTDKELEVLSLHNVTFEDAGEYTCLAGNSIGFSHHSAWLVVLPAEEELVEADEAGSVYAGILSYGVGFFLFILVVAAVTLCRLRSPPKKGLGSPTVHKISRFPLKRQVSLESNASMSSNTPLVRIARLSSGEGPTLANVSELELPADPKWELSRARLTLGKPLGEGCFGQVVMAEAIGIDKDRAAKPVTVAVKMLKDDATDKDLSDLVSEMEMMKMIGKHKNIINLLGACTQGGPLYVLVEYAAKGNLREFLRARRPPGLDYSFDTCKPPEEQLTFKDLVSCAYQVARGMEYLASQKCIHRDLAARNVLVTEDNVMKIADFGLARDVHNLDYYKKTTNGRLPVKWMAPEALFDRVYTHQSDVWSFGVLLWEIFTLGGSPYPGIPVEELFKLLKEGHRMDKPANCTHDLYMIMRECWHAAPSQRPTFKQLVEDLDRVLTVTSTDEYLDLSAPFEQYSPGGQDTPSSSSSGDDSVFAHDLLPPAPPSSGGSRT

On to `CC(C)OC(=O)Nc1ccc(-c2n[nH]c3ccc(O[C@H](C)c4c(Cl)cncc4Cl)cc23)cn1` [Example 27, isopropyl N-[5-[5-[(1R)-1-(3,5-dichloro-4-pyridyl)ethoxy]-1H-indazol-3-yl]-2-pyridyl]carbamate], for which the Kd at FGFR1 is 100 to 250 nM; at FGFR2, 250 to 1000 nM; on FGFR4, 0.1 to 100 nM; at FGFR3 it was 0.1 to 100 nM.
Regarding `C[C@@H](Oc1ccc2[nH]nc(-c3ccnc(N)c3)c2c1)c1c(Cl)cncc1Cl` [Example 29, 4-[5-[(1R)-1-(3,5-dichloro-4-pyridyl)ethoxy]-1H-indazol-3-yl]pyridin-2-amine], the Kd on FGFR1, at FGFR2, at FGFR4 and at FGFR3 was 0.1 to 100 nM in each case.
Turning to `COc1ncc(-c2n[nH]c3ccc(O[C@H](C)c4c(Cl)cncc4Cl)cc23)cc1NC(=O)CCN(C)C` [Example 31, N-[5-[5-[(1R)-1-(3,5-dichloro-4-pyridyl)ethoxy]-1H-indazol-3-yl]-2-methoxy-3-pyridyl]-3-(dimethylamino)propanamido], the Kd at FGFR1 was 250 to 1000 nM; on FGFR2 it was over 1000 nM; at FGFR4 it was 100 to 250 nM; at FGFR3, 100 to 250 nM.
Consider `C[C@@H](Oc1ccc2[nH]nc(-c3cnc(N)c(OC(F)(F)F)c3)c2c1)c1c(Cl)cncc1Cl` [Example 32, 5-[5-[(1R)-1-(3,5-dichloro-4-pyridyl)ethoxy]-1H-indazol-3-yl]-3-(trifluoro-methoxy)pyridin-2-amine], for which the Kd was over 1000 nM at FGFR1, over 1000 nM at FGFR2, 0.1 to 100 nM on FGFR4 and over 1000 nM at FGFR3.
Turning to `CCOc1cc(-c2n[nH]c3ccc(O[C@H](C)c4c(Cl)cncc4Cl)cc23)cnc1N` [Example 33, 5-[5-[(1R)-1-(3,5-Dichloro-4-pyridyl)ethoxy]-1H-indazol-3-yl]-3-ethoxy-pyridin-2-amine], the equilibrium dissociation constant (Kd) at FGFR1 is over 1000 nM; at FGFR2, over 1000 nM; on FGFR4, 0.1 to 100 nM; at FGFR3, 250 to 1000 nM.
On to `COCCNc1cc(-c2n[nH]c3ccc(O[C@H](C)c4c(Cl)cncc4Cl)cc23)ccn1` [Example 35, (R)-4-(5-(1-(3,5-Dichloropyridin-4-yl)ethoxy)-1H-indazol-3-yl)-N-(2-methoxyethyl)pyridin-2-amine], for which the equilibrium dissociation constant (Kd) on FGFR1, on FGFR2, at FGFR4 and on FGFR3 was 0.1 to 100 nM each time.
Take `C[C@@H](Oc1ccc2[nH]nc(-c3ccnc(NCCO)c3)c2c1)c1c(Cl)cncc1Cl` [Example 36, 2-[[4-[5-[(1R)-1-(3,5-Dichloro-4-pyridyl)ethoxy]-1H-indazol-3-yl]-2-pyridyl]amino]ethanol]: the Kd on FGFR1, at FGFR2, on FGFR4 and on FGFR3 was 0.1 to 100 nM in each case.
Consider `C[C@@H](Oc1ccc2[nH]nc(-c3cnc(N)c(OCC(F)(F)F)c3)c2c1)c1c(Cl)cncc1Cl` [Example 37, 5-[5-[(1R)-1-(3,5-Dichloro-4-pyridyl)ethoxy]-1H-indazol-3-yl]-3-(2,2,2-trifluoroethoxy)pyridin-2-amine], for which the dissociation constant Kd at FGFR1 is over 1000 nM; at FGFR2 it was over 1000 nM; at FGFR4, 0.1 to 100 nM; at FGFR3, over 1000 nM.
`C[C@@H](Oc1ccc2[nH]nc(-c3cnc4c(c3)OCC(=O)N4)c2c1)c1c(Cl)cncc1Cl` [Example 38, 7-[5-[(1R)-1-(3,5-dichloro-4-pyridyl)ethoxy]-1H-indazol-3-yl]-4H-pyrido[3,2-b][1,4]oxazin-3-one]: the Kd on FGFR1, on FGFR2, on FGFR4 and on FGFR3 was 0.1 to 100 nM in each case.
Take `Cc1cccc(C(=O)N2CCOc3ncc(-c4n[nH]c5ccc(O[C@H](C)c6c(Cl)cncc6Cl)cc45)cc32)n1` [Example 39, [7-[5-[(1R)-1-(3,5-dichloro-4-pyridyl)ethoxy]-1H-indazol-3-yl]-2,3-dihydro-pyrido[2,3-b][1,4]oxazin-1-yl]-(6-methyl-2-pyridyl)methanone]: the Kd at FGFR1 was over 1000 nM; on FGFR2 it was over 1000 nM; on FGFR4 it was 0.1 to 100 nM; on FGFR3, 250 to 1000 nM.
With `C[C@@H](Oc1ccc2[nH]nc(-c3cnc4c(c3)N(C(=O)OCCCN(C)C)CCO4)c2c1)c1c(Cl)cncc1Cl` [Example 43, 3-(dimethyl-amino)propyl 7-[5-[(1R)-1-(3,5-dichloro-4-pyridyl)ethoxy]-1H-indazol-3-yl]-2,3-dihydro-pyrido[2,3-b][1,4]oxazine-1-carboxylate], the dissociation constant (Kd) fell in the range of 250 to 1000 nM at FGFR1, 250 to 1000 nM on FGFR2, 0.1 to 100 nM on FGFR4 and 0.1 to 100 nM on FGFR3.
As to `COc1cc(N)cc(-c2n[nH]c3ccc(O[C@H](C)c4c(Cl)cncc4Cl)cc23)c1` [Example 44, 3-[5-[(1R)-1-(3,5-dichloro-4-pyridyl)ethoxy]-1H-indazol-3-yl]-5-methoxy-aniline], the Kd at FGFR1 was over 1000 nM; at FGFR2, over 1000 nM; at FGFR4, 0.1 to 100 nM; on FGFR3, 250 to 1000 nM.
In the case of `COc1cc(NCc2ccccn2)cc(-c2n[nH]c3ccc(O[C@H](C)c4c(Cl)cncc4Cl)cc23)c1` [Example 46, 3-[5-[(1R)-1-(3,5-dichloro-4-pyridyl)ethoxy]-1H-indazol-3-yl]-5-methoxy-N-(2-pyridyl-methyl)aniline], the Kd is over 1000 nM at FGFR1, over 1000 nM at FGFR2, 0.1 to 100 nM at FGFR4 and over 1000 nM on FGFR3.
For the compound `COc1cc(NCc2cccnc2)cc(-c2n[nH]c3ccc(O[C@H](C)c4c(Cl)cncc4Cl)cc23)c1` [Example 47, 3-[5-[(1R)-1-(3,5-dichloro-4-pyridyl)ethoxy]-1H-indazol-3-yl]-5-methoxy-N-(3-pyridyl-methyl)aniline], the Kd fell in the range of 100 to 250 nM at FGFR1, 100 to 250 nM at FGFR2, 250 to 1000 nM on FGFR4 and 0.1 to 100 nM at FGFR3.
Regarding `C[C@@H](Oc1ccc2[nH]nc(-c3cnc4c(c3)N(Cc3ccccn3)CCO4)c2c1)c1c(Cl)cncc1Cl` [Example 48, 7-[5-[(1R)-1-(3,5-dichloro-4-pyridyl)ethoxy]-1H-indazol-3-yl]-1-(2-pyridyl-methyl)-2,3-dihydro-pyrido[2,3-b][1,4]oxazine], the Kd at FGFR1 was over 1000 nM; on FGFR2, over 1000 nM; at FGFR4, 250 to 1000 nM; at FGFR3, 0.1 to 100 nM.
`C[C@@H](Oc1ccc2[nH]nc(-c3cnc4c(c3)N(CCN3CCOCC3)CCO4)c2c1)c1c(Cl)cncc1Cl` [Example 50, 7-[5-[(1R)-1-(3,5-dichloro-4-pyridyl)ethoxy]-1H-indazol-3-yl]-1-(2-morpholino-ethyl)-2,3-dihydropyrido[2,3-b][1,4]oxazine]: the Kd on FGFR1 was over 1000 nM; on FGFR2, over 1000 nM; on FGFR4, 0.1 to 100 nM; at FGFR3 it was over 1000 nM.
With `C[C@@H](Oc1ccc2[nH]nc(-c3cnc4c(c3)N(CCN(C)C)CCO4)c2c1)c1c(Cl)cncc1Cl` [Example 51, 2-[7-[5-[(1R)-1-(3,5-dichloro-4-pyridyl)ethoxy]-1H-indazol-3-yl]-2,3-dihydro-pyrido[2,3-b][1,4]oxazin-1-yl]-N,N-dimethyl-ethanamine], the equilibrium dissociation constant (Kd) at FGFR1 is over 1000 nM; at FGFR2 it was over 1000 nM; at FGFR4, 100 to 250 nM; at FGFR3 it was 250 to 1000 nM.
For `CCOc1cc(OC)cc(-c2n[nH]c3ccc(O[C@H](C)c4c(C)cnnc4C)cc23)c1` [Example 52, 5-[(1R)-1-(3,5-dimethylpyridazin-4-yl)ethoxy]-3-(3-ethoxy-5-methoxy-phenyl)-1H-indazole], the dissociation constant (Kd) on FGFR1 is over 1000 nM; on FGFR2, 250 to 1000 nM; on FGFR4, 0.1 to 100 nM; on FGFR3 it was 100 to 250 nM.
The matching figures for `COc1cc(OC)cc(-c2n[nH]c3ccc(O[C@H](C)c4c(C)cnnc4C)cc23)c1` [Example 54, 3-(3,5-dimethoxyphenyl)-5-[(1R)-1-(3,5-dimethylpyridazin-4-yl)ethoxy]-1H-indazole]: 250 to 1000 nM, 250 to 1000 nM, 0.1 to 100 nM and 0.1 to 100 nM.
